Values of other authors in paper PMC12029179, “6-Chlorocoumarin Conjugates with Nucleobases and Nucleosides as Potent Anti-Hepatitis C Virus Agents” (Molecules, 2025).

Test system: subgenomic HCV genotype 1b replicon
Parameters: method as in PMID 30951311
Settings: cited from earlier work

For `CC(C)OC(=O)[C@H](C)N[P@](=O)(OC[C@@]1(F)O[C@@H](n2ccc(=O)[nH]c2=O)[C@](C)(O)[C@@H]1O)Oc1ccccc1` [AL-335], the EC50 is given as 70 nM.
